Test results: patent US7893074B2, “2, 4-pyrimidinediamines useful in the treatment of neoplastic diseases, inflammatory and immune system disorders” (Novartis AG, priority 2003, dated 2011)
“And” between values parts separate entries of the source, which are not always exact repeats. Equal entries are not always repeated. Where two headings read alike, the source gives them in different places.

How the values were obtained:
FAK = FAK (Mus musculus, UniProt P34152); experiment: Phos IC50 (phosphorylation); assay type: cell-based
[1] = system: Mouse mammary carcinoma 4T1 cells; experiment: Anchorage-independent tumor cell growth assay; assay type: cell-based
Description: Cells are cultured for 2 h and inhibitors are added at various concentrations in a final concentration of 0.1% DMSO. After 48 h, cell growth is assayed with the cell counting kit-8 (Wako Pure Chemical), which uses a water soluble tetrazolium salt WST8. Twenty μL of the reagent is added into each well and cells are further cultured for 2 h. The optical density is measured at 450 nm.

[2] = target: Focal Adhesion Kinase (FAK) (Homo sapiens, UniProt Q05397); experiment: FAK assay system (Focal Adhesion Kinase inhibition); assay type: biochemical
Chain of Focal Adhesion Kinase (FAK) (Q05397 384-706): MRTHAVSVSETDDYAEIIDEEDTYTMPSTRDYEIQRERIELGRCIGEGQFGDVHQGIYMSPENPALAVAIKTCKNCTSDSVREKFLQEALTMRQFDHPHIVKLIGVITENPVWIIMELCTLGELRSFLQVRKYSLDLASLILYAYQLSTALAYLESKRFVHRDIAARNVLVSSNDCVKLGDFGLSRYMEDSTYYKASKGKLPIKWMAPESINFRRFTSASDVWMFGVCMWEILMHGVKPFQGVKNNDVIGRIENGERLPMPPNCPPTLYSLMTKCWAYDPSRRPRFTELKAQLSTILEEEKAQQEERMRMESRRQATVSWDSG

Chain of FAK (P34152 2-1052): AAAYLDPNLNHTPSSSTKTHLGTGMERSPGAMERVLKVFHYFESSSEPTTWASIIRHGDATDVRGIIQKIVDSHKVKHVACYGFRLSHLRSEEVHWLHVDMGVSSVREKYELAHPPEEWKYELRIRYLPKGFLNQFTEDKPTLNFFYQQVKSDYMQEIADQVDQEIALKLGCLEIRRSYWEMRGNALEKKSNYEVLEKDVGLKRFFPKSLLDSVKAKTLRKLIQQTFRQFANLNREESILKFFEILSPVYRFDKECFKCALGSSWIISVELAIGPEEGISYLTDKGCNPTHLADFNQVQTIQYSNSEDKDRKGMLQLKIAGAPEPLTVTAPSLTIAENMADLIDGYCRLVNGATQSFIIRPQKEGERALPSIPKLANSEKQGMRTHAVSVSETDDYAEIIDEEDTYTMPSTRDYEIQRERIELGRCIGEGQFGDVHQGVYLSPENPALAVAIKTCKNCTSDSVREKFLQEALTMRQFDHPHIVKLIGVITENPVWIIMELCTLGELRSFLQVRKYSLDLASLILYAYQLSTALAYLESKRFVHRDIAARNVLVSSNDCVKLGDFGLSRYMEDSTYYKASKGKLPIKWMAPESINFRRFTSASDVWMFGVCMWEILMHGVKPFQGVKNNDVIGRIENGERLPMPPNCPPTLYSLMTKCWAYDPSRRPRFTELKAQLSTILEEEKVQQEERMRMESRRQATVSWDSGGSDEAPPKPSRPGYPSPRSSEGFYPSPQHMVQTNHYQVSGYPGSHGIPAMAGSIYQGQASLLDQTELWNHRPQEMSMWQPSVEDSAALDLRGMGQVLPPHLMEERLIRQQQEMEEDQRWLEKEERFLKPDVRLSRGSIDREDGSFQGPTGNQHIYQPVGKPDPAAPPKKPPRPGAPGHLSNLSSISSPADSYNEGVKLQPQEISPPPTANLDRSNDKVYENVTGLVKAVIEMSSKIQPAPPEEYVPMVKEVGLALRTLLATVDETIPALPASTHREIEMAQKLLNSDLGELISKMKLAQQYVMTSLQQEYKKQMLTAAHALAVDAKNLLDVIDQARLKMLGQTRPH

Compound	IC50 ([1]; Mus musculus, 4T1)	IC50 ([2]; read-out: FAK IC50)	also measured
CNS(=O)(=O)c1ccccc1Nc1nc(Nc2cc(OC)ccc2OC(C)C)ncc1Br [Example 3-62]	> 10000 nM	63 nM	IC50 (FAK): > 10000 nM
CNS(=O)(=O)c1ccccc1Nc1nc(Nc2cc(-c3ccccn3)ccc2OC)ncc1Br [Example 3-67]	390 nM	6 nM	IC50 (FAK): 380 nM
CNS(=O)(=O)c1ccccc1Nc1nc(Nc2ccc(OCCCN3CCOCC3)cc2C)ncc1Br [Example 3-71]	80 nM	11 nM	IC50 (FAK): 50 nM
CNC(=O)c1ccccc1Nc1nc(Nc2ccc(N3CCC(N4CCCC4)CC3)cc2OC)ncc1Cl [Example 7-25]	730 nM	13 nM and 2 nM	IC50 [1]: 570 nM
CNS(=O)(=O)c1ccccc1Nc1nc(Nc2cc(N3CCC(N4CCCCC4)CC3)ccc2OC)ncc1Cl [Example 20-32]	110 nM	13 nM	
CNS(=O)(=O)c1ccccc1Nc1nc(Nc2ccc(OC3CCN(C)C3)cc2OC)ncc1Cl (stereo not drawn) [Example 20-29]			IC50 [1]: 50 nM
COc1cc(OCC(C)(C)CN(C)C)ccc1Nc1ncc(Cl)c(Nc2ccccc2S(=O)(=O)NC(C)C)n1 [Example 19-24]	120 nM		IC50 ([2]; FAK IC50): 1.8 nM
COc1cc(N2CCC(N3CCN(C)CC3)CC2)ccc1Nc1ncc(Cl)c(Nc2cccc3c2C(=O)N(C)C3)n1 [Example 12-4]	140 nM	1.1 nM	
CCN1CCN(c2ccc(Nc3ncc(Cl)c(Nc4ccccc4S(=O)(=O)C(C)C)n3)c(OC)c2)CC1 [Example 28-12]	430 nM	3.2 nM	
CNC(=O)c1ccccc1Nc1nc(Nc2cc(N3CCC(N4CCCCC4)CC3)ccc2OC)ncc1Cl [Example 7-24]	90 nM	5.1 nM	
CNC(=O)c1ccccc1Nc1nc(Nc2cc(N3CCC(NC)C3)ccc2OC)ncc1Cl (stereo not drawn) [Example 7-23]	250 nM	1.4 nM	
CCNC(=O)c1ccccc1Nc1nc(Nc2ccc(N3CCC(N4CCCCC4)CC3)cc2OC)ncc1Cl [Example 9-3]			IC50 [1]: 370 nM
CNS(=O)(=O)c1ccccc1Nc1nc(Nc2cc(N3CCC(O)CC3)ccc2OC)ncc1Cl [Example 20-19]	210 nM	28 nM	
COc1cc([N+](=O)[O-])ccc1Nc1ncc(Cl)c(Nc2ccccc2S(=O)(=O)C(C)C)n1 [Example 28-7]	> 10000 nM		IC50 ([2]; FAK IC50): 47 nM
CCC(CC)NS(=O)(=O)c1ccccc1Nc1nc(Nc2ccc(OC3CCN(C)C3)cc2OC)ncc1Cl (stereo not drawn) [Example 23-7]			IC50 [1]: 840 nM
CNC(=O)c1cc(N2CCCC2)ccc1Nc1nc(Nc2ccc(N3CCN(C)CC3)cc2OC)ncc1Cl [Example 15-1]	470 nM	15 nM	
COc1cc(N2CCC(N3CCN(C)CC3)CC2)ccc1Nc1ncc(Cl)c(Nc2ccccc2S(=O)(=O)C(C)C)n1 [Example 28-5]	120 nM		IC50 (FAK): 100 nM
COc1cc(N2CCN3CCOC[C@H]3C2)ccc1Nc1ncc(Cl)c(Nc2cccc3c2C(=O)N(C)C3)n1 [Example 12-6]		2.6 nM	
COc1cc(OC2CCN(C)CC2)ccc1Nc1ncc(Cl)c(Nc2ccccc2S(=O)(=O)C(C)C)n1 [Example 28-19]			IC50 [1]: 140 nM
CCOc1ccc(OC)cc1Nc1ncc(Br)c(Nc2ccccc2S(=O)(=O)NC)n1 [Example 3-61]	> 10000 nM	12 nM	
CNC(=O)c1cc(F)c(F)cc1Nc1nc(Nc2ccc(N3CCOCC3)cc2OC)ncc1Cl [Example 14-3]	1010 nM		IC50 ([2]; FAK IC50): 30 nM
CCN1Cc2cccc(Nc3nc(Nc4ccc(N5CCN(C)CC5)cc4OC)ncc3Cl)c2C1=O [Example 13-1]	810 nM	65 nM	
COc1cc(N2CCOCC2)ccc1Nc1ncc(Cl)c(Nc2ccccc2C(=O)N2CCCC2)n1 [Example 14-6]	1110 nM	63 nM	
CNS(=O)(=O)c1ccccc1Nc1nc(Nc2cc(N3CCC(N4CCN(C)CC4)CC3)ccc2OC)ncc1Cl [Example 20-18]	810 nM	15 nM	
CNC1CCN(c2ccc(Nc3ncc(Cl)c(Nc4ccccc4S(=O)(=O)NC)n3)c(OC)c2)C1 (stereo not drawn) [Example 20-17]	140 nM	2 nM	
CNC(=O)c1ccccc1Nc1nc(Nc2ccc(N3CCC[C@@H](C(N)=O)C3)cc2OC)ncc1Cl [Example 7-17]			IC50 ([2]; FAK IC50): 4.3 nM
CNS(=O)(=O)c1ccccc1Nc1nc(Nc2cccc3c2CCC3)ncc1Br [Example 3-12]	1000 nM		IC50 ([2]; FAK IC50): 5.4 nM; IC50 ([2]; FAK inhibition IC50, FAK assay system): 1 to 5 nM

Compound	IC50 ([1]; Mus musculus, 4T1)	IC50 ([2]; read-out: FAK IC50)	also measured
CNS(=O)(=O)c1ccccc1Nc1nc(Nc2cccc(N(C)C)c2C)ncc1Br [Example 3-53]	210 nM		IC50 ([2]; FAK IC50): 6 nM
CCCOc1cc(N2CCN(C)CC2)ccc1Nc1ncc(Cl)c(Nc2ccccc2S(=O)(=O)NC)n1 [Example 20-14]	320 nM	33 nM	
COc1cc(N2CCOCC2)ccc1Nc1ncc(Cl)c(Nc2ccccc2S(=O)(=O)NC2CCCC2)n1 [Example 25-1]	1000 nM		IC50 ([2]; FAK IC50): 8.5 nM
COc1cc(N2CCN(C)CC2)ccc1Nc1ncc(Cl)c(Nc2cccc3c2C(=O)N(C)C3)n1 [Example 12-2]	50 nM	1.6 nM	
CNC1CCN(c2ccc(OC)c(Nc3ncc(Cl)c(Nc4ccccc4S(=O)(=O)NC)n3)c2)C1 (stereo not drawn) [Example 20-33]	380 nM	2.5 nM	
CNC1CCN(c2ccc(Nc3ncc(Cl)c(Nc4ccccc4S(=O)(=O)C(C)C)n3)c(OC)c2)CC1 [Example 28-20]		4.4 nM	IC50 (FAK): […]
CNS(=O)(=O)c1ccccc1Nc1nc(Nc2cc(C(=O)N3CCN(C)CC3)ccc2OC)ncc1Br [Example 3-49]	390 nM	39 nM	
CNS(=O)(=O)c1ccccc1Nc1nc(Nc2cc(OC)c(N3CCN(C)CC3)cc2OC)ncc1Cl [Example 20-13]	40 nM	6.3 nM	
CNS(=O)(=O)c1ccccc1Nc1nc(Nc2ccc(OC)cc2OC)ncc1Br [Example 2, 2-[5-Bromo-2-(2,4-dimethoxy-phenylamino)-pyrimidin-4-ylamino]-N-methyl-benzenesulfonamide]		13 nM	
CCCS(=O)(=O)c1ccccc1Nc1nc(Nc2ccc(N3CCCC(C(N)=O)C3)cc2OC)ncc1Cl (stereo not drawn) [Example 26-14]	190 nM	5 nM	
CNS(=O)(=O)c1ccccc1Nc1nc(Nc2cc(-c3ccc(OC)cc3)ccc2OC)ncc1Br [Example 3-56]	150 nM		IC50 ([2]; FAK IC50): 28 nM
COc1cc(N2CCCC(C(N)=O)C2)ccc1Nc1ncc(Cl)c(Nc2ccccc2S(=O)(=O)NC(C)C)n1 (stereo not drawn) [Example 19-19]	400 nM	5.7 nM	
CNS(=O)(=O)c1ccccc1Nc1nc(Nc2cc(N3CCN(C)CC3)ccc2OC)ncc1Cl [Example 20-31]	500 nM	39 nM	
COc1cc(N2CCOCC2)ccc1Nc1ncc(Cl)c(Nc2cccc3c2C(=O)CC3)n1 [Example 14-4]	540 nM	18 nM	
CNC(=O)c1ccccc1Nc1nc(Nc2ccc(N3CCC[C@H](C(N)=O)C3)cc2OC)ncc1Cl [Example 7-18]			IC50 ([2]; FAK IC50): 6.2 nM
CNC(=O)c1ccccc1Nc1nc(Nc2cc(N3CCC(N4CCN(C)CC4)CC3)ccc2OC)ncc1Cl [Example 7-19]	330 nM	13 nM	
CNC(=O)c1cc(N2CCCC2)ccc1Nc1nc(Nc2ccc(N3CCOCC3)cc2OC)ncc1Cl [Example 15-3]			IC50 [1]: 1670 nM
CNC(=O)c1ccccc1Nc1nc(Nc2cc(N3CCN(C)CC3)ccc2OC)ncc1Cl [Example 7-22]	480 nM	25 nM	
CCCS(=O)(=O)c1ccccc1Nc1nc(Nc2ccc(N3CCN(CC(=O)NC(C)C)CC3)cc2OC)ncc1Cl [Example 26-21]		1.1 nM	IC50 (FAK): 100 nM
CNS(=O)(=O)c1ccccc1Nc1nc(Nc2cc(OC)c(N3CCOCC3)cc2OC)ncc1Cl [Example 20-12]		9.5 nM	
CNS(=O)(=O)c1ccccc1Nc1nc(Nc2ccc(OC3CCN(C)C3)cc2OC)ncc1Br (stereo not drawn) [Example 3-82]			IC50 [1]: 70 nM
CNS(=O)(=O)c1ccccc1Nc1nc(Nc2ccc(F)cc2F)ncc1Br [Example 3-36]	2800 nM		IC50 ([2]; FAK IC50): 43 nM
COc1cc(N2CCC(O)CC2)ccc1Nc1ncc(Cl)c(Nc2cccc3c2C(=O)N(C)C3)n1 [Example 12-3]	250 nM	2.3 nM	
CNS(=O)(=O)c1ccccc1Nc1nc(Nc2ccc(N3CCC(N4CCN(C)CC4)CC3)cc2OC)ncc1Cl [Example 20-16]	60 nM	7.5 nM	
COc1cc(OCCN2CCOCC2)ccc1Nc1ncc(Cl)c(Nc2ccccc2S(=O)(=O)NC(C)C)n1 [Example 19-29]		1.9 nM	
CNC(=O)c1ccccc1Nc1nc(Nc2ccc(N3CCNCC3)cc2OC)ncc1Cl [Example 7-26]	150 nM	4.1 nM	
